For assay [1], the system named is Staphylococcus aureus. The assay can be described thus: Antibacterial activity against wild type Staphylococcus aureus. Type of assay: functional.
A short description of assay [2]: Inhibition of ATPase activity of Escherichia coli DNA gyrase B.
Assay [3] has as its system Escherichia coli. The assay can be described thus: Antibacterial activity against wild type Escherichia coli. The class given is functional.
In assay [4] the test system is Streptococcus pneumoniae. The assay can be described thus: Antibacterial activity against wild type Streptococcus pneumoniae. Type of assay: functional.
Assay [5] deals with Escherichia coli. The experiment in a line: Antibacterial activity against tol C pump knockout Escherichia coli CAG12184. The class given is functional.
Assay [6] concerns Streptococcus pneumoniae. The experiment in a line: Antibacterial activity against Streptococcus pneumoniae ATCC 10015. Type of assay: functional.
The test system of assay [7] is Staphylococcus aureus. The assay can be described thus: Antibacterial activity against Staphylococcus aureus ATCC 29213. The class given is functional.
Assay [8] can be described thus: (§1) Inhibition of ATPase activity of Staphylococcus aureus DNA gyrase B.
In assay [9] the test system is Staphylococcus aureus. The assay is described as §1.
The nature of assay [10]: Selectivity ratio of Ki for Escherichia coli DNA gyraseB to Ki for Staphylococcus aureus DNA gyraseB.

The source of these data is ChEMBL document CHEMBL1157904, “Discovery of pyrazolthiazoles as novel and potent inhibitors of bacterial gyrase” (Bioorg Med Chem Lett, 2010).

Values after ≈ are worked out from the molar mass of the structure shown. Active and inactive are the calls of the source. No cut-off for these calls is given here. Bounds are passed on as bounds.

Consider `CCOC(=O)c1cc(-c2sc(-c3ccccc3)nc2N2CCCCC2)n[nH]1`, for which the MIC in the assay on Staphylococcus aureus [1], with Escherichia coli [3] and with Streptococcus pneumoniae [4] was greater than 64 µg/mL throughout. Moreover, the inhibition constant Ki in [2] came out at 210 nM.
For the compound `CCNC(=O)c1cc(-c2sc(-c3cccnc3)nc2[C@@H]2CCCN2)n[nH]1`, the MIC against Escherichia coli [5] turned out to be 32 µg/mL (≈ 86.8 µM). In assay [2], this compound gave a Ki of 82 nM.
In the case of `CCNC(=O)c1cc(-c2sc(-c3cccnc3)nc2-c2ccc(Cl)cc2)n[nH]1`, the values for the MIC against Escherichia coli [5], with Streptococcus pneumoniae [6] and against Staphylococcus aureus [7] were 8 µg/mL (≈ 19.5 µM), 4 µg/mL (≈ 9.76 µM) and 8 µg/mL (≈ 19.5 µM), respectively. This compound also yielded a Ki in assay [2] of 47 nM.
`CCc1cc(-c2sc(-c3cccs3)nc2C)n[nH]1` displayed a Ki in assay [2] of 4800 nM.
Compound `CC#CCOC(=O)NCc1cc(-c2sc(-c3cccnc3)nc2C2CCCCC2)n[nH]1` returned an MIC with Escherichia coli [5] greater than 64 µg/mL. In addition, the Ki in [2] was less than 4 nM; in assay [8], 69 nM. Further, in the assay on Escherichia coli [3], the outcome was inactive.
`CCNC(=O)c1cc(-c2sc(-c3cccnc3)nc2-c2ccccc2)n[nH]1`: the MIC was determined as 4 µg/mL (≈ 10.7 µM) against Escherichia coli [5], 2 µg/mL (≈ 5.33 µM) against Streptococcus pneumoniae [6] and 8 µg/mL (≈ 21.3 µM) with Staphylococcus aureus [7]. In addition, the affinity in [2] corresponds to a Ki of 45 nM. Moreover, the inhibition entry in the assay with Staphylococcus aureus [9] was “Active”.
For the compound `CCNC(=O)c1cc(-c2sc(-c3cccnc3)nc2C)n[nH]1`, the MIC in the assay on Escherichia coli [5], in the assay with Streptococcus pneumoniae [6] and against Staphylococcus aureus [7] was greater than 64 µg/mL in each case. Further, the Ki in assay [2] came out at 350 nM.
Take `CCOC(=O)c1cc(-c2sc(-c3ccccc3)nc2-c2ccccc2)n[nH]1`: in assay [2], the Ki stood at 140 nM.
Take `CCNC(=O)c1cc(-c2sc(-c3cccnc3)nc2[C@@H]2CCCCN2)n[nH]1`: the MIC was 48 µg/mL (≈ 125 µM) against Escherichia coli [5], 1.5 µg/mL (≈ 3.92 µM) with Streptococcus pneumoniae [6] and 32 µg/mL (≈ 83.7 µM) with Staphylococcus aureus [7]. In addition, the affinity in assay [2], expressed as Ki, was 40 nM. For the same compound, the inhibition entry in the assay with Staphylococcus aureus [9] was “Active”.
In the case of `CCOC(=O)c1cc(-c2sc(-c3cccnc3)nc2C2CCCCC2)n[nH]1`, affinity in assay [2] was put at a Ki of 120 nM.
`CSc1cc(-c2sc(-c3cccs3)nc2C)[nH]n1` came in with a Ki in assay [2] of 2900 nM.
For `CC#CCOC(=O)NCc1cc(-c2sc(-c3cccnc3)nc2COC)n[nH]1`, the lowest concentration to inhibit growth in the assay with Escherichia coli [5] (MIC) was 8 µg/mL (≈ 20.1 µM). For the same compound, the Ki came out at 14 nM in assay [2] and 1100 nM in assay [8]. Further, in the assay on Escherichia coli [3], the result was inactive.
On to `COC(=O)NCc1cc(-c2sc(-c3cccnc3)nc2N2CCCCC2)n[nH]1`, for which the minimal inhibitory concentration (MIC) in the assay on Escherichia coli [5] was greater than 64 µg/mL. Also, the Ki in assay [2] came to 56 nM; in assay [8], 300 nM. The result with Escherichia coli [3] was inactive.
`CCOC(=O)c1cc(-c2sc(-c3cccnc3)nc2N2CCC(C)CC2)n[nH]1`: the MIC in the assay with Staphylococcus aureus [1], in the assay on Escherichia coli [3] and with Streptococcus pneumoniae [4] was greater than 64 µg/mL in each case. This compound gave a Ki in [2] of 1050 nM.
For the compound `CCNC(=O)c1cc(-c2sc(-c3cccnc3)nc2C2CCCCC2)n[nH]1`, in the assay with Escherichia coli [5], the MIC is 16 µg/mL (≈ 41.9 µM). This compound had an inhibitory constant (Ki) in assay [2] of 62 nM.
Take `CC#CCOC(=O)NCc1cc(-c2sc(-c3cccnc3)nc2N2CCCCC2)n[nH]1`: the MIC in the assay with Escherichia coli [5] is 0.5 µg/mL (≈ 1.15 µM). Besides, the Ki was less than 4 nM in assay [2] and 140 nM in assay [8]. The outcome in the assay on Escherichia coli [3] was inactive.
Consider `CCOC(=O)c1cc(-c2sc(-c3cccnc3)nc2COC)n[nH]1`, for which the minimum inhibitory concentration (MIC) in the assay on Staphylococcus aureus [1], in the assay on Escherichia coli [3] and in the assay on Streptococcus pneumoniae [4] was greater than 64 µg/mL each time. Moreover, in [2], the Ki came out at 280 nM.
As for `CCOC(=O)c1cc(-c2sc(-c3cccs3)nc2C)n[nH]1`, in [2], the affinity, expressed as Ki, was 2600 nM.
`CCOC(=O)c1cc(-c2sc(-c3ccccc3)nc2C)n[nH]1` registered a Ki in [2] of 1700 nM.
In turn, `C#CCOC(=O)NCc1cc(-c2sc(-c3cccnc3)nc2N2CCCCC2)[nH]n1` yielded an MIC with Escherichia coli [5] of 1 µg/mL (≈ 2.37 µM). In addition, the Ki in [2] turned out to be 11 nM; in assay [8], 240 nM. In addition, in assay [10], the Ratio Ki stood at 10. Further, the result with Escherichia coli [3] was inactive.
Consider `CCOC(=O)c1cc(-c2sc(-c3cccnc3)nc2C2CC2)n[nH]1`, for which the Ki in [2] is 240 nM.
Consider `COC(=O)NCc1cc(-c2sc(-c3ccccc3)nc2N2CCC(O)CC2)[nH]n1`, for which the MIC in the assay with Escherichia coli [5] is greater than 64 µg/mL. In assay [2], this compound gave a Ki of 1080 nM. Moreover, in the assay with Escherichia coli [3], the outcome was inactive.
For the compound `CCOC(=O)c1cc(-c2sc(-c3cccnc3)nc2-c2ccccc2)n[nH]1`, the Ki in assay [2] turned out to be 70 nM.
The compound `CCOC(=O)c1cc(-c2sc(-c3cccnc3)nc2C)n[nH]1` came in with a Ki in assay [2] of 330 nM.
Consider `CCOC(=O)c1cc(-c2sc(-c3ccccc3)nc2N2CCOCC2)n[nH]1`, for which the MIC in the assay with Staphylococcus aureus [1], against Escherichia coli [3] and in the assay on Streptococcus pneumoniae [4] was greater than 64 µg/mL throughout. In assay [2], this compound came in with a Ki of 630 nM.
Take `CCOC(=O)c1cc(-c2sc(-c3cccnc3)nc2CO)n[nH]1`: the MIC in the assay on Staphylococcus aureus [1], in the assay on Escherichia coli [3] and against Streptococcus pneumoniae [4] was greater than 64 µg/mL in each case. The Ki in assay [2] is 670 nM.
As to `CCNC(=O)c1cc(-c2sc(-c3cccnc3)nc2[C@H]2CCCCN2)n[nH]1`, the MIC in the assay on Escherichia coli [5], in the assay with Streptococcus pneumoniae [6] and against Staphylococcus aureus [7] was greater than 64 µg/mL in each case. Also, the affinity in [2], expressed as Ki, was 3400 nM. The inhibition result with Staphylococcus aureus [9] was “Active”.
Compound `CCNC(=O)c1cc(-c2sc(-c3cccnc3)nc2N2CCCCC2)n[nH]1` had an MIC in the assay with Escherichia coli [5] of 32 µg/mL (≈ 83.7 µM). The compound also returned a Ki in assay [2] of 90 nM.
Compound `CSc1cc(-c2sc(-c3ccccc3)nc2C)n[nH]1` showed an inhibition constant Ki in [2] of 3500 nM.
For the compound `CCCc1nc(-c2ccccc2)sc1-c1cc(C(=O)OCC)[nH]n1`, the inhibitory constant (Ki) in [2] is 800 nM.
